# Experimental data from patent US4795748A, “Antibacterial 7-oxo-4-thia-1-azabicyclo[3,2,0]hept-2-ene derivatives” (Hoechst UK Limited, priority 1984, dated 1989).
# Key:
# Assay type in all cases: cell-based
# Str. pyogenes 77A = test: agar dilution test, MIC, Str. pyogenes 77A; settings: Streptococcus pyogenes, Mueller Hinton agar, 16 to 18 hours, 37° C., read-out: Minimum Inhibitory Concentration
# Experimental: (§1) The antimicrobial activity was determined by measuring the Minimum Inhibitory Concentration (MIC). The MIC of the compounds was determined by a standard test, the "agar dilution test" according to Lorian (Antibioticsin Laboratory Medicine, Williams and Wilkins, Baltimore/London 1980) as follows:
# (§2) A two-fold decreasing concentration series of each compound was prepared in Petri dishes containing 15 ml of Mueller Hinton agar (Difco). One Petri dish containing only the Mueller Hinton agar served as control for bacterial growth. Each Petri dish was inoculated with a multi-point inoculator (Denley), which transfered 0.6 μl of a 1:100 diluted 18 hours culture of the appropriate test bacterium. After 16 to 18 hours of incubation at 37° C., the Petri dishes were examined for growth of bacteria. The lowest concentration of the compound which causes complete inhibition of growth is taken as the MIC.
# Kl. aerog. 1082 E = test: agar dilution test, MIC, Kl. aerog. 1082 E; settings: Mueller Hinton agar, 16 to 18 hours, 37° C., read-out: Minimum Inhibitory Concentration
# Experimental: as §1, §2
# E. coli DC2 = test: agar dilution test, MIC, E. coli DC2; settings: Escherichia coli, Mueller Hinton agar, 16 to 18 hours, 37° C., read-out: Minimum Inhibitory Concentration
# Experimental: as §1, §2
# Staph. aureus 503 = test: agar dilution test, MIC, Staph. aureus 503; settings: Staphylococcus aureus, Mueller Hinton agar, 16 to 18 hours, 37° C., read-out: Minimum Inhibitory Concentration
# Experimental: as §1, §2
# E. coli TEM = test: agar dilution test, MIC, E. coli TEM; settings: Escherichia coli, 18 h, read-out: Minimum Inhibitory Concentration
# Experimental: as §1, §2
# E. coli 1507 E = test: agar dilution test, MIC, E. coli 1507 E; settings: Escherichia coli, Mueller Hinton agar, 16 to 18 hours, 37° C., read-out: Minimum Inhibitory Concentration
# Experimental: as §1, §2
# Bac. subtilis ATCC 6633 = test: agar dilution test, MIC, Bac. subtilis ATCC 6633; settings: Bacillus subtilis, ATCC6633, Mueller Hinton agar, 16 to 18 hours, 37° C., read-out: Minimum Inhibitory Concentration
# Experimental: as §1, §2
# Str. faecium D = test: agar dilution test, MIC, Str. faecium D; settings: Enterococcus faecium, Mueller Hinton agar, 16 to 18 hours, 37° C., read-out: Minimum Inhibitory Concentration
# Experimental: as §1, §2
# Staph. aureus 285 = test: agar dilution test, MIC, Staph. aureus 285; settings: Staphylococcus aureus, Mueller Hinton agar, 16 to 18 hours, 37° C., read-out: Minimum Inhibitory Concentration
# Experimental: as §1, §2
# E. coli 055 = test: agar dilution test, MIC, E. coli 055; settings: Escherichia coli, Mueller Hinton agar, 16 to 18 hours, 37° C., read-out: Minimum Inhibitory Concentration
# Experimental: as §1, §2
# [1] = test system: a variety of microorganisms, particularly β-lactamase producing organisms; test: antibacterial activity compared with the corresponding unsubstituted 3-phenoxy compound; settings: against a variety of microorganisms
# Experimental: as §1, §2
# Staph. aureus SG 511 = test: agar dilution test, MIC, Staph. aureus SG 511; settings: Staphylococcus aureus, SG511, Mueller Hinton agar, 16 to 18 hours, 37° C., read-out: Minimum Inhibitory Concentration
# Experimental: as §1, §2
# E. coli KN 126 = test: agar dilution test, MIC, E. coli KN 126; settings: Escherichia coli, KN126, Mueller Hinton agar, 16 to 18 hours, 37° C., read-out: Minimum Inhibitory Concentration
# Experimental: as §1, §2
# Ent. cloacae 1321 E = test: agar dilution test, MIC, Ent. cloacae 1321 E; settings: Enterobacter cloacae, Mueller Hinton agar, 16 to 18 hours, 37° C., read-out: Minimum Inhibitory Concentration
# Experimental: as §1, §2
# Str. pyogenes 308 A = test: agar dilution test, MIC, Str. pyogenes 308 A; settings: Streptococcus pyogenes, Mueller Hinton agar, 16 to 18 hours, 37° C., read-out: Minimum Inhibitory Concentration
# Experimental: as §1, §2
# Kl. aerog. 1522 E = test: agar dilution test, MIC, Kl. aerog. 1522 E; settings: Mueller Hinton agar, 16 to 18 hours, 37° C., read-out: Minimum Inhibitory Concentration
# Experimental: as §1, §2
# Salm. typhimurium MZ II = test: agar dilution test, MIC, Salm. typhimurium MZ II; settings: Salmonella enterica, Mueller Hinton agar, 16 to 18 hours, 37° C., read-out: Minimum Inhibitory Concentration
# Experimental: as §1, §2
structure (smiles),measurement,setting,value
"C[C@@H](O)[C@H]1C(=O)N2C(C(=O)O)=C(Oc3ccc(C(N)=O)cc3)S[C@H]12 [Ra = 4-CONH2, 5R-3-(4-carbamoylphenoxy)-6S-(1R-hydroxyethyl)-7-oxo-4-thia-1-azabicyclo[3,2,0]hept-2-ene-2-carboxylate]",MIC,Str. pyogenes 77A,0.05 µg/mL
same,MIC,Kl. aerog. 1082 E,0.39 µg/mL
same,MIC,E. coli DC2,0.78 µg/mL
same,MIC,Staph. aureus 503,0.1 µg/mL
same,MIC,E. coli TEM,0.39 µg/mL
same,MIC,E. coli 1507 E,0.39 µg/mL
same,MIC,Bac. subtilis ATCC 6633,0.05 µg/mL
same,MIC,Str. faecium D,6.25 µg/mL
same,MIC,Staph. aureus 285,0.1 µg/mL
same,MIC,E. coli 055,0.19 µg/mL
same,antibacterial activity versus the corresponding unsubstituted 3-phenoxy compound,[1],greater antibacterial activity
same,MIC,Staph. aureus SG 511,0.05 µg/mL
same,MIC,E. coli KN 126,0.39 µg/mL
same,MIC,Ent. cloacae 1321 E,0.78 µg/mL
same,MIC,Str. pyogenes 308 A,0.025 µg/mL
same,MIC,Kl. aerog. 1522 E,0.78 µg/mL
same,MIC,Salm. typhimurium MZ II,0.78 µg/mL
